Laboratory results from US20120095211A1, “SUBSTITUTED PROLINE INHIBITORS OF HEPATITIS C VIRUS REPLICATION” (InterMune, Inc., priority 2010, published 2012).
pEC50, pIC50: −log10 of the molar value. Like-named read-outs stand apart in the source and are kept apart here.

Experiments:
[1] = rcm bond
hepatitis C replicon = hepatitis C replicon EC50 assay; type: cell-based, hepatitis C virus (HCV); settings: Hepatitis C virus
Description: (§1) NS3-NS4 inhibition activity can be determined using known assay methods. For example, NS3/NS4 complexes may be formed and inhibitory concentrations of test compounds determined as described in U.S. Patent Application Publication Number 2007/0054842 paragraph numbers 1497-1509, which is incorporated herein by reference in its entirety. Similarly, hepatitis C replicon EC50 may be determined using known assay methods such as described in U.S. Patent Application Publication Number 2007/0054842 paragraph numbers 1510-1515, which is incorporated herein by reference in its entirety. Assays may be conducted at ambient temperature (23° C.) in assay buffer containing 50 mM Tris-HCl, pH 7.5, 15% glycerol, 0.6 mM Lauryldimethylamine Oxide (LDAO), 25 μM NS4A peptide, and 10 mM Dithiothreitol (DTT).

NS3/NS4 complexes = NS3/NS4 complexes (Hepatitis C virus genotype 1a, UniProt P27958); assay: NS3/NS4 inhibition assay (inhibitory concentrations of test compounds); type: biochemical; settings: NS3-NS4 activity; 23° C., pH 7.5, 25 μM NS4A peptide
Description: as §1

[2] = hepatitis C replicon, read-out: EC50

Sequence of NS3/NS4 complexes (P27958 1658-1711): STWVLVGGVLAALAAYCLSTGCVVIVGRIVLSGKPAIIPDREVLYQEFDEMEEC
Sequence of NS3/NS4 complexes (P27958 1027-1657): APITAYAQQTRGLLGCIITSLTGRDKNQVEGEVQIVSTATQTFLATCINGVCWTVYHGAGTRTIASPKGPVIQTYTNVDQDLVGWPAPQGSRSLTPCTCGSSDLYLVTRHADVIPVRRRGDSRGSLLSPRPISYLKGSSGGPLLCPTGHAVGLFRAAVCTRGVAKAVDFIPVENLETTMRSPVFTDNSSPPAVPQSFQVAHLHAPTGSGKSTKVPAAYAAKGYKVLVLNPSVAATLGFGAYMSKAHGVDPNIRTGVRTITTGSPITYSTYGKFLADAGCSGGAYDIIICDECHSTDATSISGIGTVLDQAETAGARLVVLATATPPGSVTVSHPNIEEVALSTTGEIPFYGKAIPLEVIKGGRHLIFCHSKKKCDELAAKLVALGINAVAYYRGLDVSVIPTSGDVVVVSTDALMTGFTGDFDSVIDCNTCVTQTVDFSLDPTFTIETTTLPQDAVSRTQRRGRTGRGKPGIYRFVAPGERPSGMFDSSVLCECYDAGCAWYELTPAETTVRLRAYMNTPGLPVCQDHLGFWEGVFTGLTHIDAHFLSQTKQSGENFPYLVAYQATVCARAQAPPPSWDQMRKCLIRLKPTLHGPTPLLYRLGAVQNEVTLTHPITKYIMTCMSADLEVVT

Row | SMILES | pEC50 (hepatitis C replicon; [2]) | pIC50 (NS3/NS4 complexes) | other results
1 | CC(C)n1c(O[C@H]2CN3C(=O)[C@@H](NC(=O)OC(C)(C)C)CCCCCC=C[C@@H]4C[C@@]4(C(=O)NS(=O)(=O)C4(C)CC4)NC(=O)[C@@H]3[C@@H]2C)nc2c(-c3nc(C4CCCCC4)cs3)cccc21 |  |  | ring closure, yield of all isomers ([1]; from C=CCCCCC[C@H](NC(=O)OC(C)(C)C)C(=O)N1C[C@H](Oc2nc3c(-c4nc(C5CCCCC5)cs4)cccc3n2C(C)C)[C@@H](C)[C@H]1C(=O)N[C@]1(C(=O)NS(=O)(=O)C2(C)CC2)C[C@H]1C=C, Zhan catalyst, toluene, 5.16 mM, 65.0 °C, 1.0 h): 53.9%
2 | CCOC(=O)[C@@]12C[C@H]1C=CCCCCC[C@H](NC(=O)OC(C)(C)C)C(=O)N1C[C@H](Oc3cc(-c4nc(C(C)C)cs4)nc4c(C)c(OC)ccc34)[C@@H](C)[C@H]1C(=O)N2 |  |  | ring closure, yield of all isomers ([1]; from C=CCCCCC[C@H](NC(=O)OC(C)(C)C)C(=O)N1C[C@H](Oc2cc(-c3nc(C(C)C)cs3)nc3c(C)c(OC)ccc23)[C@@H](C)[C@H]1C(=O)N[C@]1(C(=O)OCC)C[C@H]1C=C, Zhan catalyst, toluene, 11.67 mM, 70.0 °C, 2.0 h): 75%
3 | CCOC(=O)[C@@]12C[C@H]1C=CCCCCC[C@H](NC(=O)OC(C)(C)C)C(=O)N1C[C@H](Oc3nc4c(-c5nc(C6CCCCC6)cs5)cccc4n3C(C)C)[C@@H](C)[C@H]1C(=O)N2 |  |  | ring closure, yield of all isomers ([1]; from C=CCCCCC[C@H](NC(=O)OC(C)(C)C)C(=O)N1C[C@H](Oc2nc3c(-c4nc(C5CCCCC5)cs4)cccc3n2C(C)C)[C@@H](C)[C@H]1C(=O)N[C@]1(C(=O)OCC)C[C@H]1C=C, Hoveyda-Grubbs catalyst, 1,2-dichloroethane, 0.96 mM): 83%
4 | CCOC(=O)[C@@]12C[C@H]1C=CCCCCC[C@H](NC(=O)OC(C)(C)C)C(=O)N1C[C@H](Oc3ncc(OC)c4ccc(Cl)cc34)[C@@H](C)[C@H]1C(=O)N2 |  |  | ring closure, yield of all isomers ([1]; from C=CCCCCC[C@H](NC(=O)OC(C)(C)C)C(=O)N1C[C@H](Oc2ncc(OC)c3ccc(Cl)cc23)[C@@H](C)[C@H]1C(=O)N[C@]1(C(=O)OCC)C[C@H]1C=C, Hoveyda-Grubbs catalyst, 1,2-dichloroethane, 0.8 mM, 12.0 h): 92%
5 | COc1ccc2c(O[C@H]3CN4C(=O)[C@@H](NC(=O)OC(C)(C)C)CCCCCC=C[C@@H]5C[C@@]5(C(=O)NS(=O)(=O)C5(C)CC5)NC(=O)[C@@H]4C3(C)C)cc(-c3nc(C(C)C)cs3)nc2c1C |  |  | ring closure, yield of all isomers ([1]; from C=CCCCCC[C@H](NC(=O)OC(C)(C)C)C(=O)N1C[C@H](Oc2cc(-c3nc(C(C)C)cs3)nc3c(C)c(OC)ccc23)C(C)(C)[C@H]1C(=O)N[C@]1(C(=O)NS(=O)(=O)C2(C)CC2)C[C@H]1C=C, Zhan catalyst, toluene, 5.9 mM, 65.0 °C, 1.33 h): 56%
6 | COc1ccc2c(O[C@H]3CN4C(=O)[C@@H](NC(=O)OC(C)(C)C)CCCCCC=C[C@@H]5C[C@@]5(C(=O)NS(=O)(=O)C5(C)CC5)NC(=O)[C@@H]4[C@@H]3C)cc(-c3nc(C(C)C)cs3)nc2c1C |  |  | ring closure, yield of all isomers ([1]; from C=CCCCCC[C@H](NC(=O)OC(C)(C)C)C(=O)N1C[C@H](Oc2cc(-c3nc(C(C)C)cs3)nc3c(C)c(OC)ccc23)[C@@H](C)[C@H]1C(=O)N[C@]1(C(=O)NS(=O)(=O)C2(C)CC2)C[C@H]1C=C, Zhan catalyst, toluene, 5.9 mM, 65.0 °C, 0.5 h): 68%
7 | COc1ccc2c(O[C@H]3CN4C(=O)[C@@H](NC(=O)OC(C)(C)C)CCCCCC=C[C@@H]5C[C@@]5(C(=O)NS(=O)(=O)C5(C)CC5)NC(=O)[C@@H]4[C@H]3C)cc(-c3nc(C(C)C)cs3)nc2c1C |  |  | ring closure, yield of all isomers ([1]; from C=CCCCCC[C@H](NC(=O)OC(C)(C)C)C(=O)N1C[C@H](Oc2cc(-c3nc(C(C)C)cs3)nc3c(C)c(OC)ccc23)[C@H](C)[C@H]1C(=O)N[C@]1(C(=O)NS(=O)(=O)C2(C)CC2)C[C@H]1C=C, Zhan catalyst, 70.0 °C, 0.5 h): 59%
8 | COc1ccc2c(O[C@H]3CN4C(=O)[C@@H](NC(=O)OC(C)(C)C)CCCCC/C=C\[C@@H]5C[C@@]5(C(=O)NS(=O)(=O)C5(C)CC5)NC(=O)[C@@H]4C3(C)C)cc(-c3nc(C(C)C)cs3)nc2c1C [Compound 101] | < 7.00 | 7.00 to 8.00 | 
9 | COc1ccc2c(O[C@H]3CN4C(=O)[C@@H](NC(=O)OC(C)(C)C)CCCCC/C=C\[C@@H]5C[C@@]5(C(=O)NS(=O)(=O)C5(C)CC5)NC(=O)[C@@H]4[C@@H]3C)cc(-c3nc(C(C)C)cs3)nc2c1C [Compound 102] | > 8.00 | > 8.00 | 
10 | COc1ccc2c(O[C@H]3CN4C(=O)[C@@H](NC(=O)OC(C)(C)C)CCCCC/C=C\[C@@H]5C[C@@]5(C(=O)NS(=O)(=O)C5CC5)NC(=O)[C@@H]4[C@@H]3C)cc(-c3nc(C(C)C)cs3)nc2c1C [Compound 103] | > 8.00 | > 8.00 | 
11 | COc1ccc2c(O[C@H]3CN4C(=O)[C@@H](N)CCCCC/C=C\[C@@H]5C[C@@]5(C(=O)NS(=O)(=O)C5(C)CC5)NC(=O)[C@@H]4[C@@H]3C)cc(-c3nc(C(C)C)cs3)nc2c1C [Compound 104] | 7.00 to 8.00 | > 8.00 | 
12 | COc1ccc2c(O[C@H]3CN4C(=O)[C@@H](NC(=O)OC(C)(C)C)CCCCC/C=C\[C@@H]5C[C@@]5(C(=O)NS(=O)(=O)C5(C)CC5)NC(=O)[C@@H]4[C@H]3C)cc(-c3nc(C(C)C)cs3)nc2c1C [Compound 106] | < 7.00 | 7.00 to 8.00 | 
13 | CC(C)n1c(O[C@H]2CN3C(=O)[C@@H](NC(=O)OC(C)(C)C)CCCCC/C=C\[C@@H]4C[C@@]4(C(=O)NS(=O)(=O)C4(C)CC4)NC(=O)[C@@H]3[C@@H]2C)nc2c(-c3nc(C4CCCCC4)cs3)cccc21 [Compound 107] | 7.00 to 8.00 | > 8.00 | 
14 | CC(C)n1c(O[C@H]2CN3C(=O)[C@@H](NC(=O)OC(C)(C)C)CCCCC/C=C\[C@@H]4C[C@@]4(C(=O)NS(=O)(=O)C4CC4)NC(=O)[C@@H]3[C@@H]2C)nc2c(-c3nc(C4CCCCC4)cs3)cccc21 [Compound 109] | 7.00 to 8.00 | > 8.00 | 
15 | COc1cnc(O[C@H]2CN3C(=O)[C@@H](NC(=O)OC(C)(C)C)CCCCC/C=C\[C@@H]4C[C@@]4(C(=O)O)NC(=O)[C@@H]3[C@@H]2C)c2cc(Cl)ccc12 [Compound 110] | < 7.00 | > 8.00 | 
16 | COc1cnc(O[C@H]2CN3C(=O)[C@@H](NC(=O)OC(C)(C)C)CCCCC/C=C\[C@@H]4C[C@@]4(C(=O)NS(=O)(=O)C4(C)CC4)NC(=O)[C@@H]3[C@@H]2C)c2cc(Cl)ccc12 [Compound 111] | > 8.00 | > 8.00 | 
17 | C=C[C@@H]1C[C@]1(NC(=O)[C@H]1N(C(=O)C(NC(=O)OC(C)(C)C)C(C)(C)C)C[C@H](Oc2cc(-c3nc(C(C)C)cs3)nc3c(C)c(OC)ccc23)C1(C)C)C(=O)NS(=O)(=O)C1(C)CC1 (some centres unmarked) [Compound 202] | < 7.00 | < 7.00 | 
18 | C=C[C@@H]1C[C@]1(NC(=O)[C@@H]1[C@H](C)[C@@H](Oc2cc(-c3nc(C(C)C)cs3)nc3c(C)c(OC)ccc23)CN1C(=O)C(N)C(C)(C)C)C(=O)NS(=O)(=O)C1(C)CC1 (some centres unmarked) [Compound 203] | 7.00 to 8.00 | > 8.00 | 
19 | C=C[C@@H]1C[C@]1(NC(=O)[C@@H]1[C@H](C)[C@@H](Oc2cc(-c3nc(C(C)C)cs3)nc3c(C)c(OC)ccc23)CN1C(=O)[C@@H](NC(=O)OC(C)(C)C)C(C)(C)C)C(=O)NS(=O)(=O)C1(C)CC1 [Compound 204] | > 8.00 | > 8.00 | 
20 | C=C[C@@H]1C[C@]1(NC(=O)[C@@H]1[C@H](C)[C@@H](Oc2cc(-c3nc(C(C)C)cs3)nc3c(C)c(OC)ccc23)CN1C(=O)[C@@H](NC(=O)OC(C)(C)C)C(C)(C)C)C(=O)NS(=O)(=O)C1CC1 [Compound 205] | > 8.00 | > 8.00 | 
21 | C=C[C@@H]1C[C@]1(NC(=O)[C@@H]1[C@H](C)[C@@H](Oc2cc(-c3nc(C(C)C)cs3)nc3c(C)c(OC)ccc23)CN1C(=O)[C@@H](N)C(C)(C)C)C(=O)NS(=O)(=O)C1CC1 [Compound 207] | < 7.00 | > 8.00 | 
22 | C=C[C@@H]1C[C@]1(NC(=O)[C@@H]1[C@@H](C)[C@@H](Oc2cc(-c3nc(C(C)C)cs3)nc3c(C)c(OC)ccc23)CN1C(=O)[C@@H](NC(=O)OC(C)(C)C)C(C)(C)C)C(=O)NS(=O)(=O)C1(C)CC1 [Compound 208] |  | 7.00 to 8.00 | pEC50 (hepatitis C replicon): < 7.00
23 | C=C[C@@H]1C[C@]1(NC(=O)[C@@H]1[C@H](C)[C@@H](Oc2cc(-c3nc(C(C)C)cs3)nc3c(C)c(OC)ccc23)CN1C(=O)[C@@H](Nc1cccc(C(F)(F)F)c1)C(C)(C)C)C(=O)NS(=O)(=O)C1(C)CC1 [Compound 209] | 7.00 to 8.00 | > 8.00 | 
24 | C=C[C@@H]1C[C@]1(NC(=O)[C@@H]1[C@H](C)[C@@H](Oc2ncc(OC)c3ccc(Cl)cc23)CN1C(=O)[C@@H](NC(=O)OC(C)(C)C)C(C)(C)C)C(=O)O [Compound 210] | < 7.00 | 7.00 to 8.00 | 
25 | C=C[C@@H]1C[C@]1(NC(=O)[C@@H]1[C@H](C)[C@@H](Oc2ncc(OC)c3ccc(Cl)cc23)CN1C(=O)[C@@H](NC(=O)OC(C)(C)C)C(C)(C)C)C(=O)NS(=O)(=O)C1(C)CC1 [Compound 211] | > 8.00 | > 8.00 | 
26 | C=C[C@@H]1C[C@]1(NC(=O)[C@@H]1[C@@H](C)[C@@H](Oc2cc(-c3nc(C(C)C)cs3)nc3c(C)c(OC)ccc23)CN1C(=O)[C@@H](N)C(C)(C)C)C(=O)NS(=O)(=O)C1(C)CC1 [Compound 212] |  | < 7.00 | 
